The text below walks through data of patent US7220773B2, “Pyrrole derivative” (Dainippon Sumitomo Pharma Co., Ltd., priority 2001, dated 2007).

The subject of one assay is male db/db mice. Briefly: Hypoglycemic activity in db/db mice, oral administration once a day for 2 weeks. It counts as in vivo. The note with it: Mus musculus, po, 336 h, dosage 30 mg/kg orally once a day for 2 weeks in 0.5% carboxymethyl cellulose, male db/db mice (7 to 8 weeks old), versus vehicle on last day. The protocol: The test compounds described in Examples (these compound were made into a free form from a salt form, a sodium salt or calcium salt, if necessary) were dissolved or suspended in 0.5% carboxymethyl cellulose solution. Mice were forced to orally administer the test compound as to administer the total amount of 30 mg/kg or 100 mg/kg to male db/db mice (7 to 8 weeks old) once a day for 2 weeks. On last day, to the blood just taken from tail vein was added perchloric acid to remove proteins and then the blood sugar was measure by glucose CII Test Waco (Wako Pure Chemical Ind.). Hypoglycemic activity was calculated as following formula: [formula] • A: Blood sugar level of Vehicle (on last day) • B: Blood sugar level of test compound-administered group (on last day)
For the compound `Cc1ccc(C(=O)c2cccn2C/C=C/c2cccc([C@H](C)C(=O)O)c2)cc1` [Example 111], the inhibition in vivo at 30 mg/kg was 61%.

In turn, `COc1ccc(C(=O)c2cc(C)cn2C/C=C/c2cccc(O[C@@H](C)C(=O)O)c2)cc1` [Example 158] came in with an inhibition in vivo at 30 mg/kg of 24%.

Take `Cc1ccc(C(=O)c2cccn2C/C=C/c2cccc(SC(C)C(=O)O)c2)cc1` (stereo not drawn) [Example 126]: the inhibition in vivo at 30 mg/kg came to 56%.

With `Cc1ccc(C(=O)c2cccn2C/C=C/c2cccc([C@@H](C)C(=O)O)c2)cc1` [Example 110], testing at 30 mg/kg gave an inhibition in vivo of 17%.

The compound `COc1cccc(C(=O)c2cccn2C/C=C/c2cccc(OC(C)C(=O)O)c2)c1` (stereo not drawn) [Example 63] gave an inhibition in vivo at 30 mg/kg of 19%.

Take `CCc1ccc(C(=O)c2cccn2C/C=C/c2cccc(O[C@@H](C)C(=O)O)c2)cc1` [Example 91]: testing at 30 mg/kg gave an inhibition in vivo of 55%.

The compound `CC(Oc1cccc(/C=C/Cn2cccc2C(=O)c2ccc(C(F)(F)F)cc2)c1)C(=O)O` (stereo not drawn) [Example 143] yielded an inhibition in vivo at 30 mg/kg of 21%.

Turning to `C[C@H](Oc1cccc(/C=C/Cn2cccc2C(=O)c2ccc3c(c2)CCO3)c1)C(=O)O` [Example 186], the inhibition in vivo at 30 mg/kg is 44%.

In turn, `Cc1ccc(CC(=O)c2cccn2C/C=C/c2cccc(O[C@@H](C)C(=O)O)c2)cc1` [Example 191] registered an inhibition in vivo at 30 mg/kg of 15%.

Regarding `CC(Oc1cccc(/C=C/Cn2cccc2C(=O)c2cccc(Oc3ccc(C(F)(F)F)cc3)c2)c1)C(=O)O` (stereo not drawn) [Example 155], the inhibition in vivo at 30 mg/kg is 57%.

`C[C@H](Oc1cccc(/C=C/Cn2cccc2C(=O)c2ccc3c(c2)OCO3)c1)C(=O)O` [Example 92] showed an inhibition in vivo at 30 mg/kg of 46%.

In turn, `CC(Oc1cccc(/C=C/Cn2cccc2C(=O)Nc2ccc(OC(F)(F)F)cc2)c1)C(=O)O` (stereo not drawn) [Example 179] registered an inhibition in vivo at 30 mg/kg of 22%.

The same assay, now with this note: Mus musculus, po, 336 h, dosage 100 mg/kg orally once a day for 2 weeks in 0.5% carboxymethyl cellulose, male db/db mice (7 to 8 weeks old), versus vehicle on last day.
With `Cc1ccc(C(=O)c2ccn(C/C=C/c3cccc(SC(C)C(=O)O)c3)c2)cc1` (stereo not drawn) [Example 128], 100 mg/kg produced 27% inhibition in vivo.

With `Cc1ccc(C(=O)c2cccn2C/C=C/c2cccc(O[C@@H](C)C(=O)O)c2)cc1` [Example 142], the inhibition in vivo at 100 mg/kg was 55%.

Take `CCC(Cc1cccc(/C=C/Cn2cccc2C(=O)c2ccc(C)cc2)c1)C(=O)O` (stereo not drawn) [Example 165]: 100 mg/kg produced 68% inhibition in vivo.

As to `COc1ccccc1NC(=O)c1cccn1C/C=C/c1cccc(SCC(=O)O)c1` [Example 171], the inhibition in vivo at 100 mg/kg worked out at 20%.

`Cc1ccc(NC(=O)c2cccn2C/C=C/c2cccc(SCC(=O)O)c2)cc1` [Example 135] returned an inhibition in vivo at 100 mg/kg of 16%.

Turning to `O=C(O)COc1cccc(/C=C/Cn2cccc2C(=O)c2ccc(Cl)cc2)c1` [Example 53], the inhibition in vivo at 100 mg/kg stood at 23%.

Consider `Cc1ccc(C(=O)c2cccn2C/C=C/c2cccc(O[C@H](C)C(=O)O)c2)cc1` [Example 139], for which the inhibition in vivo at 100 mg/kg amounted to 55%.

As for `Cc1ccc(C(=O)c2cccn2C/C=C/c2cccc(C(C)(C)C(=O)O)c2)cc1` [Example 39], the inhibition in vivo at 100 mg/kg worked out at 65%.

The same assay, now with this note: dosage 30 mg/kg orally once a day for 2 weeks in 0.5% carboxymethyl cellulose, male db/db mice (7 to 8 weeks old), versus vehicle on last day.
With `Cc1ccc(CC(=O)c2cccn2C/C=C/c2cccc(O[C@@H](C)C(=O)O)c2)cc1` [Example 201], the “Hypoglycemic activity(%)” value is recorded as 18%.

The inhibition in vivo is the drop in the measured response relative to a control, in per cent. A higher inhibition in vivo goes with a response far below the control.
